One data set has as its system CT26.CL25 cells. The data set is described as follows: CT26.CL25 colorectal tumor growth. It is filed as in vivo, BALB/c mice. The following applies: 0.012 μg free, days 13, 16, 19. As to the method:
To test and expand in vivo efficacy to other types of tumors, BALB/c mice were inoculated subcutaneously with 5×10^5 CT26.CL25 cells (ATCC®; CRL-2639™), a murine colorectal cancer cell line engineered to stably express beta-galactosidase, or 5×10^5 CT26.WT cells (ATCC®; CRL-2638™) (n=5-7 mice per group). Thirteen, sixteen, and nineteen days post-inoculation the mice were injected intratumorally into CT26.CL25 tumor with exosomes, 0.012 μg of free 3-3 cAIMPdFSH, or 0.012 μg-3 cAIMPdFSH loaded in PTGFRN-overexpressing exosomes and into CT26.WT tumor with PBS, exosomes, 100 μg of free ML RR-S2 CDA, or 0.2 μg-3 cAIMPdFSH loaded in PTGFRN-overexpressing exosomes.

Another data set concerns STING pathway. The experiment in a line: STING pathway activation after intraperitoneal or intratumoral dose in B16F10 tumor-bearing mice. It is filed as in vivo, C57BL/6 mice. The following applies: 20 μg single IP dose. As to the method:
Five groups of C57BL/6 mice (n=4 mice per group) were inoculated subcutaneously with 5×10^5 B16F10 murine melanoma cells. Eight days post-inoculation the mice were injected intraperitoneally (IP) with a single dose of either PBS, 20 μg ML RR-S2, 0.2 μg ML RR-S2, 0.2 μg ML RR-S2 loaded in PTGFRN-overexpressing exosomes (Exo STING IP), or intratumorally (IT) with a single dose of 0.2 μg ML RR-S2 loaded in PTGFRN-overexpressing exosomes (Exo STING IT). The exosome-encapsulated STING agonist formulations were loaded and quantitated as described in Example 1.

In data set [1] the test system is CD8+ T-cells, macrophages, and dendritic cells. The experiment in a line: Live CD45+ cell populations in B16F10 tumors 24 hours post-injection. The class given is in vivo, mice. The following applies: 20 μg intratumoral. As to the method: Constitutive activation of the STING pathway results in robust pro-inflammatory signaling and may be toxic to cells and tissues (N Engl J Med. 2014 Aug. 7; 371(6): 507-518). Non-selective delivery of STING agonists in a tumor microenvironment may result in a robust IFNβ response, but if response is too strong or originates in undesired cell populations, effector cells such as CD8^+ T-cells may be killed or otherwise attenuated. B16F10 melanoma tumors were injected with PTGFRN-overexpressing exosomes labeled with Alexa Fluor™ 488 and removed one hour post-injection. Tumor-infiltrating lymphocytes were purified and measured for fluorescence at 488 nm to track exosome uptake. Only ˜20% of T-cells engulfed exosomes, while ˜90% and ˜70% of macrophages and dendritic cells, respectively, engulfed exosomes (FIG. 51A). […] 24 hours post-injection, the tumors were isolated, homogenized, and live CD45^+ cell populations were counted. […] Non-selective delivery of high doses of STING agonists therefore may attenuate desirable immune stimulatory responses.

Data set [2] deals with B16F10 murine melanoma cells. The data set is described as follows: B16F10 primary tumor and re-challenge, durable T cell responses. The class given is in vivo, C57BL/6 mice. As to the method:
Six, nine, and twelve days post-inoculation, the tumors were injected intratumorally with PBS, exosomes, 100 μg of free ML RR-S2 CDA, or 0.2 μg 3-3 cAIMPdFSH loaded in PTGFRN-overexpressing exosomes. […] Five additional naïve mice were inoculated with the same tumor cell preparation and treated daily with PBS to ensure cell viability and growth kinetics. By day 37 (17 days post-challenge) all mice in the PBS group were sacrificed.

A further data set relates to A20 lymphoma cells. The experiment in a line: CIVO intratumoral microinjection, cleaved caspase 3 staining. The class given is in vivo, BALB/cAnNHsd mice. As to the method: All experiments in mice were approved by IACUC Board of Presage Biosciences, Seattle, Wash. (Protocol number PR-001) and were performed at Presage in accordance with relevant guidelines and regulations. All relevant procedures were performed under anesthesia and all efforts were made to minimize pain and suffering. Female BALB/cAnNHsd mice (Envigo) with an average weight of 18 gm were used for experiments at 5-7 weeks of age. For generating A20 allografts, mice were inoculated with 1 million A20 cells in 100 μl inoculation volume.
CIVO intra-tumoral microinjections were performed as described in Klinghoffer et al. (2016) Science Translational Medicine. Briefly, mice (n=6 per time point, 4 and 24 hours) were enrolled in microinjection studies when implanted tumors reached the following approximate dimensions: 14 mm (length), 10 mm (width) and 7 mm (depth). […]
Images of every cell from each tissue section stained were captured by digital, automated, high-resolution whole-tissue scanning (3D Histech Panoramic 250 Flash). Tumor responses were quantified from image files from each tissue section using Presage's custom CIVO Analyzer image analysis platform. […] In order to mitigate the influence of pre-existing necrosis on biomarker measurements, injection sites that fall within largely acellular tumor regions are excluded prior to quantitative analysis. […]

On to `Nc1ncnc2c1ncn2[C@@H]1O[C@@H]2COP(=O)(S)O[C@H]3[C@@H](F)[C@H](n4cnc5c(=O)[nH]cnc54)O[C@@H]3COP(O)(=S)O[C@H]2[C@H]1F` (stereo partly shown) [3-3 cAIMPdFSH, 3′3′-cAIMPdFSH], for which the “tumor growth compared to control” value in the data set on CT26.CL25 cells is given as “moderately attenuated tumor growth”.

For `Nc1ncnc2c1ncn2[C@@H]1O[C@@H]2COP(O)(=S)O[C@@H]3C(O)[C@@H](COP(O)(=S)O[C@H]2[C@H]1O)O[C@H]3n1cnc2c(N)ncnc21` (stereo partly shown) [ML RR-S2 CDA], in the data set with STING pathway, the “IFNβ expression in tumor, pancreas and spleen” value was “induced IFNβ expression in the tumor, pancreas, and spleen above the PBS-treated group”. Besides, in data set [1], the “CD8+ T-cells, macrophages, and dendritic cells in tumor” value was “dramatically reduced compared to the other groups”. Also, the “animals in which re-challenge tumor growth was not inhibited” value in data set [2] (100 μg free group, re-challenged day 20, read day 37) is listed as 10 out of 10. For the same compound, in data set [2] (100 μg free, intratumoral days 6, 9, 12), the “animals that showed complete response (primary tumor)” value is listed as “ten”. In addition, the “cleaved caspase 3 (CC3)” value was “dramatically increased at four and 24 hours” with A20 lymphoma cells (high dose free (printed 2 g), four and 24 hours); “modest” in the data set with A20 lymphoma cells (low dose free (printed 200 ng)).

For the origin of these results see patent US20210322327A1, “EXTRACELLULAR VESICLES COMPRISING STING-AGONIST” (Codiak BioSciences, Inc., priority 2018, published 2021).
